According to PMC8997399, “High-Throughput Screening to Identify Inhibitors of Plasmodium falciparum Importin α” (Cells, 2022):
Read-outs that look alike come from different tables or passages of the source. Values belong to the molecule of their own block, whether it stands above or below them.

Experiments:
MmIMPα/β heterodimer = target: T1, MmIMPα/β heterodimer (Mus musculus, UniProt P52293); test: AlphaScreen binding assay, MmIMPα/β:T-ag-NLS-GFP interaction; settings: for inhibition at 10 µM: read-out: % Inhibition of IMPα-NLS Interaction MmIMPα/β
T1 construct: GST; made in house
Procedure: (§1) PfIMPα, TgIMPα, Mus musculus IMPα (MmIMPα), ΔIBBMmIMPα, and β1 (MmIMPβ) GST fusion proteins were expressed and purified essentially as previously. His-tagged TGS1-NLS-GFP, PfIMPα and TgIMPα proteins were purified using Ni^2+-affinity chromatography as described. His-tagged SV40 T-ag-NLS-GFP was purified as previously. Biotinylation of GST-tagged proteins was carried out using the Sulfo-NHS-Biotin reagent (Pierce, Rockford, IL, USA) as described previously. AlphaScreen binding assay was performed as described previously.
(§2) Plates were read for an Alphascreen signal on an Envision plate reader (PerkinElmer, Waltham, MA, USA), with signals from the negative control wells (no bait control) on each plate subtracted.

MmΔIBBIMPα = target: T2, MmΔIBBIMPα (Mus musculus, UniProt P52293); test: AlphaScreen binding assay, MmΔIBBIMPα:T-ag-NLS-GFP interaction; settings: for inhibition at 10 µM: read-out: % Inhibition of IMPα-NLS Interaction MmΔIBBIMPα
T2 construct: made in house
Procedure: as §1, §2

PfIMPα = PfIMPα (Plasmodium falciparum, UniProt Q8IAW0); test: biochemical; type: binding; settings: for inhibition at 10 µM: read-out: % Inhibition of IMPα-NLS Interaction PfIMPα
Procedure: as §1
Then, 10 nM biotinylated PfIMPα and 60 nM TGS1-NLS-GFP were used with library compounds, screened at 10 µM final concentration.
Briefly, 5 μL of each compound in DMSO was added to quadruplicate wells of a 384-well plate along with appropriate controls including DMSO alone and ivermectin, as previously, using a JANUS Modular Dispense Technology (MDT) robotic system (PerkinElmer, Waltham, MA, USA). This was followed by successive 7 and 5 μL additions, respectively, of PfIMPα (10 nM) and TGS1-NLS-GFP (60 nM) or PBS (“no bait” control), respectively, and 30 min incubation at room temperature. […] Then, 4 µL of the AlphaScreen donor beads (1/40 dilution of GSH. acceptor beads in PBS) was finally added to each well using a Multidrop, followed by a further incubation of 2 h at room temperature in the dark.
as §2

TgIMPα = TgIMPα (Toxoplasma gondii, UniProt A0A125YID0); test: biochemical; type: binding; settings: for inhibition at 10 µM: read-out: % Inhibition of IMPα-NLS Interaction TgIMPα
Procedure: as §1, §2

T. gondii tachyzoites = settings: cited from earlier work
P. falciparum 3D7 strain = test: P. falciparum growth inhibition assay (HRP2 sandwich ELISA); type: cell-based, Plasmodium falciparum; settings: Plasmodium falciparum, 3D7, 72 h
Procedure: Red blood cells (RBCs) were derived from blood from volunteers (approval from the Institute Ethics Committee, IIT Bombay, Mumbai, India) by density gradient centrifugation. Aliquots of cryopreserved P. falciparum 3D7 strain in human red blood cells (RBCs—3% hematocrit, <5% parasitemia) were thawed and cultured using RPMI (Roswell Park Memorial Institute) 1640 medium supplemented with 0.5% Albumax (Gibco^TM, Waltham, MA, USA), 50 mg/L hypoxanthine (Sigma-Aldrich, St Louis, MO, USA), 2 g/L D-glucose (Sigma-Aldrich, St Louis, MO, USA), 2 g/L sodium bicarbonate (Sigma-Aldrich, St Louis, MO, USA), and 56 mg/L of gentamicin (Abbott, Chicago, IL, USA) at 37 °C in 5% CO2 in a humidified incubator according to the standard procedures; suspension cultures were maintained at 3% hematocrit and <5% parasitemia, by adding a fresh medium daily and a regular addition of fresh human RBCs.
Before growth inhibition assays, cultures were synchronized using 5% D-sorbitol (Sigma-Aldrich, St Louis, MO, USA) predominantly to obtain the ring stage of the P. falciparum life cycle.
Growth assays in the absence and presence of inhibitors were performed using the Histidine–Rich Protein 2 (HRP2) sandwich horseradish peroxidase-linked immunosorbent assay to measure HRP2 protein levels as an indicator of growth. Briefly, 25 µL of compound was added to 96-well microculture plates (Eppendorf, Hamburg, Germany) of 0.25% (with fresh RBCs), and added at a hematocrit of 3%. The plates were then incubated for 72 h at 37 °C in a humidified incubator, sparged with 5% CO2. 72 h later, the plates were subjected to freeze–thaw to achieve hemolysis, and samples diluted 200-fold in H2O in transferring to another plate. A day prior to analysis, 96-well ELISA plates (Sigma-Aldrich, St Louis, MO, USA) were coated overnight at 4 °C with 100 µL of 1 μg/mL IgM capture antibody MPFM-55A (Immunology Consultants Laboratory, Portland, OR, USA) specific for P. falciparum HRP2. After blocking for 2 h at room temperature with 2% BSA in PBS, diluted samples were added to the wells, followed by incubation for 2 h, then the plates were washed three times with 0.05% Tween 20 in PBS. Next, 100 µL of the secondary antibody MPFG-55P (Immunology Consultants Laboratory, Portland, OR, USA) conjugated with horseradish peroxidase (0.25 μg/mL in PBS with 2% BSA) was then added to each well, and the plates incubated for 1 h at room temperature, prior to being washed three times, and 100 µL 3,3′, 5,5′ tetramethylbenzidine substrate (BD Biosciences, San Jose, CA, USA) being added. After 10 min incubation in the dark, 50 µL of 1 M H2SO4 was added and the absorbance was read at 450 nm on a Multiscan™ FC Microplate Spectrophotometer (Thermo Fisher Scientific, Waltham, MA, USA).

[1] = MTT assay for host cell cytotoxicity; type: cell-based, human; settings: human, HFF cells; MTT assay, 48 h; mean ± SD (n = 2)
Procedure: The MTT assay was used to measure the cytotoxicity of the small molecules against the HFF cells as described. Briefly, freshly confluent HFF cells in a 96-well culture plate were treated with increasing concentrations of compounds for 48 h, prior to the MTT assay.

[2] = tested on: T. gondii RH strain expressing the luciferase reporter (RH-Fluc); test: T. gondii tachyzoite growth inhibition assay (RH-Fluc luciferase); type: cell-based, Toxoplasma gondii; settings: Toxoplasma gondii
Excerpt: T. gondii RH strain expressing the luciferase reporter (RH-Fluc) was derived to assess the effect of the inhibitors on growth. Briefly, plasmid pCTG-EGFP [42] was modified by replacing the coding sequence of EGFP with that of the firefly luciferase reporter, using restriction enzymes BglII and PstI (Thermo Fisher Scientific, Waltham, MA, USA). The resultant plasmid, pCTG-Fluc, expressing firefly luciferase constitutively under the control of the T. gondii TubulinA promoter, was electroporated into the T. gondii RH strain [43, 44] using a Bio-Rad GenePulser Xcell system (1500 V, 50 Ω and 25 µF) along with restriction enzyme NotI to initiate RE-Mediated Integration (REMI) of the linearized plasmid into the genome. The resultant stable T. gondii line expressing the luciferase reporter was selected for resistance to 20 µM chloramphenicol (encoded by the plasmid pCTG), and dilution cloning was performed to ultimately identify the clone (RH-Fluc) with the highest luciferase activity (c. 4 × 10^7 RLU from 10^7 parasites) used for growth assays. T. gondii tachyzoites were maintained and cultured at 37 °C in 5% CO2 in a humidified incubator in primary human foreskin fibroblasts (HFF, ATCC); HFF cells were maintained in Dulbecco’s modified Eagle medium (DMEM) (Gibco^TM, Waltham, MA, USA) supplemented with 3.7 g/L sodium bicarbonate and 2.38 g/L HEPES, 10% Cosmic Calf serum (Hyclone^TM, Logan, UT, USA) and 20 mg/L gentamicin [47, 48].
Growth inhibition was assessed by luminescence measurements as described. Briefly, 100 μL of culture medium with or without inhibitors was added to confluent monolayers of HFF cells grown in 96-well treated culture plates (Eppendorf, Hamburg, Germany), followed by 100 µL of DMEM containing 5000 parasites. After 48 h, 150 µL of the culture media was discarded from each well without aspirating any parasites, and 10 µL lysis buffer was added to lyse the parasites, followed by 50 μL of 2× luciferase assay reagent (Promega, Madison, WI, USA). Luminescence was measured directly for 10 s using a Varioskan™ LUX multimode microplate reader (Thermo Fisher Scientific, Waltham, MA, USA).

[3] = target: His-tagged SV40 T-ag-NLS-GFP (NLS of simian virus SV40 large tumor antigen fused to GFP) (Simian Virus 40); test: AlphaScreen or HTRF
[4] = target: His-tagged TGS1-NLS-GFP (NLS of P. falciparum trimethyl guanosine synthase 1 fused to GFP) (Plasmodium falciparum); test: AlphaScreen or HTRF; Kd determination without inhibitors; His-tagged NLS-GFP (30 nM) and biotinylated-GST-IMPα (5 nM) as printed; pooled from three independent experiments
[5] = compounds at 10 μM, MmIMPα/β (5 nM):T-ag-NLS-GFP (30 nM), relative to 1% DMSO control
[6] = compounds at 10 μM, ΔIBBMmIMPα (5 nM):T-ag-NLS-GFP (30 nM), relative to 1% DMSO control
[7] = compounds at 10 μM, PfIMPα (10 nM):TGS1-NLS-GFP (60 nM), relative to 1% DMSO control, quadruplicate
[8] = compounds at 10 μM, TgIMPα (5 nM):T-ag-NLS-GFP (30 nM), relative to 1% DMSO control

Molecule: CNC[C@H](O)c1ccc(O)c(O)c1.Cl (racemic) [(±)-Epinephrine HCl]
- % Inhibition of IMPα-NLS Interaction MmIMPα/β (MmIMPα/β heterodimer): 95%
- % Inhibition of IMPα-NLS Interaction MmIMPα/β (MmIMPα/β heterodimer; listed as (±)-epinephrine HCl): ≥ 95%
- % Inhibition of IMPα-NLS Interaction MmΔIBBIMPα (MmΔIBBIMPα): 35%
- % Inhibition of IMPα-NLS Interaction MmΔIBBIMPα (MmΔIBBIMPα; listed as (±)-epinephrine HCl): < 55%

Molecule: Cl.NCC(O)c1cc(O)c(O)cc1F (stereo not drawn) [6-Fluoronorepinephrine HCl]
- % Inhibition of IMPα-NLS Interaction MmIMPα/β (MmIMPα/β heterodimer; [5]): 51%
- % Inhibition of IMPα-NLS Interaction MmΔIBBIMPα (MmΔIBBIMPα; [6]): 60%
- % Inhibition of IMPα-NLS Interaction PfIMPα (PfIMPα; [7]): 77%
- % Inhibition of IMPα-NLS Interaction TgIMPα (TgIMPα; [8]): 67%

Molecule: CNC[C@H](O)c1ccc(O)c(O)c1 [(−)-Epinephrine bitartrate]
- inhibition at 10 µM (MmIMPα/β heterodimer; [5]): 94%
- inhibition at 10 µM (MmΔIBBIMPα; [6]): 34%
- inhibition at 10 µM (PfIMPα): 85%
- inhibition at 10 µM (TgIMPα): 23%

Molecule: CC[n+]1c(/C=C/C=C2/N(C)c3ccccc3C2(C)C)sc2ccccc21.[I-] [AC-93253 iodide]
- % Inhibition of IMPα-NLS Interaction MmIMPα/β (MmIMPα/β heterodimer; [5]): 62%
- % Inhibition of IMPα-NLS Interaction MmΔIBBIMPα (MmΔIBBIMPα; [6]): 67%
- % Inhibition of IMPα-NLS Interaction PfIMPα (PfIMPα; [7]): 82%
- % Inhibition of IMPα-NLS Interaction TgIMPα (TgIMPα; [8]): 72%

Molecule: Cc1ccc(S(=O)(=O)/C=C/C#N)cc1 [Bay 11-7082]
- inhibition of growth of T. gondii tachyzoites (T. gondii tachyzoites): inhibit the growth

Molecule: COc1ccc2c(c[n+](C)c3c4cc5c(cc4ccc23)OCO5)c1OC.[Cl-] [Chelerythrine Cl]
- % Inhibition of IMPα-NLS Interaction MmIMPα/β (MmIMPα/β heterodimer; [5]): 94%
- % Inhibition of IMPα-NLS Interaction MmΔIBBIMPα (MmΔIBBIMPα; [6]): 88%
- % Inhibition of IMPα-NLS Interaction PfIMPα (PfIMPα; [7]): 81%
- % Inhibition of IMPα-NLS Interaction TgIMPα (TgIMPα; [8]): 67%

- IC50 (P. falciparum 3D7 strain; parasites in culture, pooled, mean ± SD (n = 3)): 1 nM
- IC50 (P. falciparum 3D7 strain; single typical experiment (Figure 6)): 0.7 nM
Molecule: C[C@H]1[C@@H](O)O[C@@H]2O[C@@]3(C)CC[C@H]4[C@H](C)CC[C@@H]1[C@@]24OO3 [DHA, dihydroartemisinin]

Molecule: O=c1ccc2ccc(O)c(O)c2o1 [Daphnetin]
- inhibition at 10 µM (MmIMPα/β heterodimer; [5]): 83%
- inhibition at 10 µM (MmΔIBBIMPα; [6]): 81%
- inhibition at 10 µM (PfIMPα; [7]): 81%
- inhibition at 10 µM (TgIMPα; [8]): 70%

Molecule: O=C(Nc1ccc(N2CCNCC2)nc1)c1oc(-c2ccccc2)nc1C(F)(F)F [MMV024937]
- % Inhibition of IMPα-NLS Interaction MmIMPα/β (MmIMPα/β heterodimer; [5]): 24%
- % Inhibition of IMPα-NLS Interaction MmΔIBBIMPα (MmΔIBBIMPα; [6]): 70%
- % Inhibition of IMPα-NLS Interaction PfIMPα (PfIMPα; [7]): 73%
- % Inhibition of IMPα-NLS Interaction TgIMPα (TgIMPα; [8]): 26%

Molecule: CC(C)(CN)c1nc(-c2ccc(Cl)c(O)c2)c(-c2ccnc(N)n2)[nH]1 [MMV030734]
- % Inhibition of IMPα-NLS Interaction MmIMPα/β (MmIMPα/β heterodimer; [5]): 68%
- % Inhibition of IMPα-NLS Interaction MmΔIBBIMPα (MmΔIBBIMPα; [6]): 43%
- % Inhibition of IMPα-NLS Interaction TgIMPα (TgIMPα; [8]): 44%

Molecule: O=C(Nc1nc(-c2ccccn2)cs1)c1cncn1-c1ccccc1 [MMV676512]
- % Inhibition of IMPα-NLS Interaction MmΔIBBIMPα (MmΔIBBIMPα; [6]): 54%
- % Inhibition of IMPα-NLS Interaction TgIMPα (TgIMPα; [8]): 48%

Molecule: CCc1nc(N)nc(N)c1-c1ccc(Cl)cc1 [pyrimethamine]
- CC50 at 48 h [1]: > 10000 nM
- IC50 ([2]; Table S1, mean ± SEM (n = 3), read-out: IC50 T. gondii tachyzoites): 500 ± 100 nM
- IC50 ([2]; parasites in culture, 48 h, pooled, mean ± SD (n = 3) (Table 3), read-out: IC50 T. gondii): 460 ± 140 nM

Molecule: Mus musculus importin α deleted for the autoinhibitory IBB domain (MmΔIBBIMPα), biotinylated GST fusion protein (domain or fragment)
- Kd [3]: 2.6 nM

Molecule: Plasmodium falciparum importin α (PfIMPα), biotinylated GST fusion protein (natural protein)
- Kd [4]: 6.5 nM

Molecule: Toxoplasma gondii importin α (TgIMPα), biotinylated GST fusion protein (natural protein)
- Kd [3]: 3.5 nM
